Test results published in patent publication US20260234651A1, “ACETYL-COA CARBOXYLASE INHIBITOR RESISTANT SORGHUM” (PIONEER HI-BRED INTERNATIONAL, INC., priority 2023, published 2026).

Legend:
Assay type in all cases: in vivo, Sorghum bicolor
[1] = test system: F1 Hybrid 1_W2032C (single copy of W2032C ACCase); assay: Field tolerance test, Quizalofop-P-ethyl (Assure II) spray; conditions: 1 copy, 1-9 score, 1 dead, 9 no visible response
Method: (§1) The ACCase edited plants generated in Example 1 were outcrossed with 3 male sterile lines in a controlled environment. The F1 plants which contain a single copy of the W2032C edit in the ACCase gene and the edited elite inbred line containing 2 copies of the W2032C ACCase (hereinafter referred to as […]) along with the non-edited elite inbred (wt control) and the 3 male sterile lines were tested in the field for efficacy. Four short rows, each row with ~100 seedlings, were planted for each variety in replicate. Once the plants reached the 5-6 leaves stage, replicate 1 for each variety was treated with a 1× dose of Assure II (Quizalofop-P-ethyl) and replicate 2 for each variety was treated with a 2× dose of Assure II (Quizalofop-P-ethyl). Plants were then scored for tolerance at 7- and 14-days post application. The plots were scored by giving a 1-9 score to each plot, with 1 being dead and 9 no visible response.
(§2) The PH2545MW_W2032C was given score of 7 with 1× dose of Quizalofop-P-ethyl application (Table 4), as some twisting of the leaves due to herbicide injury was observed, however, after a week or so the twisting of the leaves may not be visible anymore because they were growing out of it, which may be indicated by the score change from 5 to 6 at day 7 and day 14 post 2× dose of Quizalofop-P-ethyl application.

[2] = test system: F1 Hybrid 2_W2032C (single copy of W2032C ACCase); assay: as above; conditions: 1 copy, 1-9 score, 1 dead, 9 no visible response
Method: as §1, §2

[3] = test system: F1 Hybrid 3_W2032C (single copy of W2032C ACCase); assay: as above; conditions: 1 copy, 1-9 score, 1 dead, 9 no visible response
Method: as §1, §2

Male Sterile 1_WT = assay: as above; conditions: 0 copies, 1-9 score, 1 dead, 9 no visible response
Method: as §1, §2

Male Sterile 2_WT = assay: as above; conditions: 0 copies, 1-9 score, 1 dead, 9 no visible response
Method: as §1, §2

Male Sterile 3_WT = assay: as above; conditions: 0 copies, 1-9 score, 1 dead, 9 no visible response
Method: as §1, §2

[4] = test system: elite inbred_W2032C (2 copies of W2032C ACCase); assay: as above; conditions: for 7-day Post Application Score / 14-day Post Application Score: elite inbred_W2032C, 2 copies
Method: as §1, §2

[5] = test system: elite inbred_WT (non-edited elite inbred, wt control); assay: as above; conditions: 0 copies W2032C, 1-9 score, 1 dead, 9 no visible response
Method: as §1, §2

[6] = test system: homozygous ACCase edited T1 plants; assay: Spray test of T1 plants with quizalofop-p-ethyl; conditions: all 19 homozygous ACCase edited T1 plants, 8-leaf stage, 7 fl. ounce (0.034-0.083 lb ai)
Description: (§3) ACCase edited T1 seeds were planted in flats, all seeds germinated and were heathy looking. Additionally, they were all able to produce T2 seeds with high seed count setting. Nineteen homozygous ACCase edited T1 plants at the 8-leaf stage were sprayed with quizalofop-p-ethyl at a rate of 7 fl. ounce (0.034-0.083 lb ai), which is the average dose from the Assure II label. […] A subset of the T1 plants after the spray test were kept to maturity and all produced T2 seeds with good seed setting. In contrast, the wild-type control plants were all susceptible to the quizalofop-p-ethyl spray and died.

wild-type control plants = assay: Spray test of T1 plants with quizalofop-p-ethyl; conditions: 7 fl. ounce (0.034-0.083 lb ai), all died
Description: as §3

[7] = test system: control plants without the W2032C ACCase edit; assay: Field tolerance test, summary in words; conditions: all plants dead at 10-14 days post spray
Method: as §1

[8] = test system: three F1 hybrids with a single copy of the W2032C ACCase edit; assay: Field tolerance test, summary in words; conditions: 1x or 2x Assure II
Method: as §1

[9] = 1x dose, 1-9 score, 1 dead, 9 no visible response
[10] = 2x dose, 1-9 score, 1 dead, 9 no visible response

`CCOC(=O)[C@@H](C)Oc1ccc(Oc2cnc3cc(Cl)ccc3n2)cc1` [Quizalofop-P-ethyl] was tested, and the “7-day Post Application Score” value ([1]; 1x dose) was 5, the “14-day Post Application Score” value ([1]; 1x dose) was 4 and the “7-day Post Application Score” value ([1]; 2x dose) was 4. For the same molecule, the “14-day Post Application Score” value ([1]; 2x dose) was 3, the “7-day Post Application Score” value ([2]; 1x dose) was 5 and the “14-day Post Application Score” value ([2]; 1x dose) was 4. The “7-day Post Application Score” value ([2]; 2x dose) was 5, the “14-day Post Application Score” value ([2]; 2x dose) was 3 and the “7-day Post Application Score” value ([3]; 1x dose) was 5. The “14-day Post Application Score” value ([3]; 1x dose) was 3, the “7-day Post Application Score” value ([3]; 2x dose) was 5 and the “14-day Post Application Score” value ([3]; 2x dose) was 4. The “7-day Post Application Score” value (Male Sterile 1_WT; 1x dose) was 2, the “14-day Post Application Score” value (Male Sterile 1_WT; 1x dose) was 1 and the “7-day Post Application Score” value (Male Sterile 1_WT; 2x dose) was 2. For the same molecule, the “14-day Post Application Score” value (Male Sterile 1_WT; 2x dose) was 1, the “7-day Post Application Score” value (Male Sterile 2_WT; 1x dose) was 2 and the “14-day Post Application Score” value (Male Sterile 2_WT; 1x dose) was 1. The “7-day Post Application Score” value (Male Sterile 2_WT; 2x dose) was 2, the “14-day Post Application Score” value (Male Sterile 2_WT; 2x dose) was 1 and the “7-day Post Application Score” value (Male Sterile 3_WT; 1x dose) was 3. For the same molecule, the “14-day Post Application Score” value (Male Sterile 3_WT; 1x dose) was 1, the “7-day Post Application Score” value (Male Sterile 3_WT; 2x dose) was 2 and the “14-day Post Application Score” value (Male Sterile 3_WT; 2x dose) was 1. The “field tolerance score (day not stated)” value ([4]; PH2545MW_W2032C, 1x dose, some twisting of the leaves, 1-9 score, 1 dead, 9 no visible response) was 7, the “7-day Post Application Score” value [4, 9] was 7 and the “14-day Post Application Score” value [4, 9] was 7. For the same molecule, the “7-day Post Application Score” value [4, 10] was 5, the “14-day Post Application Score” value [4, 10] was 6 and the “tolerance to the herbicide in the field” value ([4]; inbred_W2032C plants, 1x or 2x Assure II at 5-6 leaves stage) was “tolerance”. The “7-day Post Application Score” value ([5]; 1x dose) was 3, the “14-day Post Application Score” value ([5]; 1x dose) was 1 and the “7-day Post Application Score” value ([5]; 2x dose) was 3. For the same molecule, the “14-day Post Application Score” value ([5]; 2x dose) was 1, the “response of plants to the herbicide spray” value [6] was “resistance (tolerance)” and the “response of plants to the herbicide spray” value (wild-type control plants) was “susceptible”. For the same molecule, the “tolerance to the herbicide in the field” value [7] was “no tolerance” and the “tolerance to the herbicide in the field” value [8] was “some tolerance”.
